Data reported in US9938276B2, “6,5-bicyclic octahydropyrrolopyridine orexin receptor antagonists” (Merck Sharp & Dohme Corp., priority 2014, dated 2018).

Assays:
human orexin-2 receptor = human orexin-2 receptor (Homo sapiens (Human), UniProt O43614); test: hOX2R FLIPR Ca2+ flux assay; assay type: cell-based; conditions: CHO cells expressing the receptor; agonist 70 pM Ala-6,12 human orexin-A
In short: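 Using CHO lines carrying either rat orexin-1 or human orexin-2 receptor, compounds were tested as antagonists of 70 pM Ala-6,12 orexin-A-evoked calcium rises. Fluo-4 signal was read on a FLIPR over 5 min after a 5 min compound preincubation.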

hOX1R = hOX1R (Homo sapiens, UniProt O43613); test: hOX1R FLIPR Ca2+ flux assay; assay type: cell-based; conditions: CHO cells expressing the receptor; agonist 70 pM Ala-6,12 human orexin-A

human orexin-2 receptor, sequence (O43614 whole entry): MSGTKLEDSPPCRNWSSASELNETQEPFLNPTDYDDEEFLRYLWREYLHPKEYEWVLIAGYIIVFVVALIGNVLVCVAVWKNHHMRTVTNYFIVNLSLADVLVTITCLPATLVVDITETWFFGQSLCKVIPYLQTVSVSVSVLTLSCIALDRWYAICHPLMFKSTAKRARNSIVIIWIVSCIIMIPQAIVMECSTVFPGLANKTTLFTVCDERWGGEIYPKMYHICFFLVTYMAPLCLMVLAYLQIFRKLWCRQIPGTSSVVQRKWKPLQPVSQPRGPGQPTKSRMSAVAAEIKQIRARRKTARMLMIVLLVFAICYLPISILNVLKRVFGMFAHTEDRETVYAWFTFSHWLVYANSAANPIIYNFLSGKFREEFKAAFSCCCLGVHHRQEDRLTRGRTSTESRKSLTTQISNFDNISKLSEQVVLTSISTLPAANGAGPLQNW

CC(C)Oc1ncccc1C(=O)N1CC[C@H]2CCN(c3cc(C#N)ccn3)[C@H]2C1 [Example E19, 2-[(3aR, 7aR)-6-{[2-(1-methylethoxy)pyridin-3-yl]carbonyl}octahydro-1H-pyrrolo[2,3-c]pyridin-1-yl]pyridine-4-carbonitrile]
IC50 (human orexin-2 receptor): 1400 nM | IC50 (hOX1R): 10000 nM

N#Cc1ccnc(N2CC[C@@H]3CCN(C(=O)c4ncccc4-n4nccn4)C[C@@H]32)c1 [Example E20, 2-[(3aR, 7aR)-6-{[3-(2H-1,2,3-triazol-2-yl)pyridin-2-yl]carbonyl}octahydro-1H-pyrrolo[2,3-c]pyridin-1-yl]pyridine-4-carbonitrile]
IC50 (human orexin-2 receptor): 1500 nM | IC50 (hOX1R): ≥ 10000 nM

N#Cc1ccnc(N2CC[C@@H]3CCN(C(=O)c4ccccc4OC(F)F)C[C@@H]32)c1 [Example E21, 2-[(3aR, 7aR)-6-{[2-(difluoromethoxy)phenyl]carbonyl}octa-hydro-1H-pyrrolo[2,3-c]pyridin-1-yl]pyridine-4-carbonitrile]
IC50 (human orexin-2 receptor): 1520 nM | IC50 (hOX1R): 10000 nM

N#Cc1ccnc(N2CC[C@@H]3CCN(C(=O)c4ccccc4C4CC4(F)F)C[C@@H]32)c1 (stereo partly drawn) [Example E22, 2-[(3aR, 7aR)-6-{[2-(2,2-difluorocyclopropyl)phenyl]carbonyl}octa-hydro-1H-pyrrolo[2,3-c]pyridin-1-yl]pyridine-4-carbonitrile]
IC50 (human orexin-2 receptor): 43.8 nM | IC50 (hOX1R): 10000 nM

N#Cc1ccnc(N2CC[C@@H]3CCN(C(=O)c4ccccc4-c4ncccn4)C[C@@H]32)c1 [Example E23, 2-{(3aR, 7aR)-6-[(2-pyrimidin-2-ylphenyl)carbonyl]octahydro-1H-pyrrolo[2,3-c]pyridin-1-yl}pyridine-4-carbonitrile]
IC50 (human orexin-2 receptor): 99.5 nM | IC50 (hOX1R): ≥ 10000 nM

NC(=O)c1ccnc(N2CC[C@@H]3CCN(C(=O)c4ccccc4-n4nccn4)C[C@@H]32)c1 [Example F1, 2-((3aR,7aR)-6-(2-(2H-1,2,3-triazol-2-yl)benzoyl)octahydro-1H-pyrrolo[2,3-c]pyridin-1-yl)isonicotinamide]
IC50 (human orexin-2 receptor): 562 nM | IC50 (hOX1R): ≥ 10000 nM

N#Cc1ccnc(N2CC[C@@H]3C[C@@H](CO)N(C(=O)c4ccccc4-n4nccn4)C[C@@H]32)c1 [Example G1, 2-((3aR,5S,7aR)-6-(2-(2H-1,2,3-triazol-2-yl)benzoyl)-5-(hydroxymethyl)octahydro-1H-pyrrolo[2,3-c]pyridin-1-yl)isonicotinonitrile]
IC50 (human orexin-2 receptor): 8.2 nM | IC50 (hOX1R): 2750 nM

CCOC(=O)[C@@H]1C[C@H]2CCN(c3cc(C#N)ccn3)[C@H]2CN1C(=O)c1ccccc1-n1nccn1 [Example G2, (3aR,5S,7aR)-ethyl 6-(2-(2H-1,2,3-triazol-2-yl)benzoyl)-1-(4-cyanopyridin-2-yl)octahydro-1H-pyrrolo[2,3-c]pyridine-5-carboxylate]
IC50 (human orexin-2 receptor): 198 nM | IC50 (hOX1R): ≥ 10000 nM

N#Cc1ccnc(N2CC[C@@H]3C[C@@H](CO)N(C(=O)c4ccccc4-n4nccn4)C[C@@H]32)c1 [Example G4]
IC50 (human orexin-2 receptor): 2080 nM | IC50 (hOX1R): 10000 nM

C[C@H]1C[C@H]2CCN(c3cc(C#N)ccn3)[C@H]2CN1C(=O)c1ccccc1-n1nccn1 [Example H1, 2-(6-(2-(2H-1,2,3-triazol-2-yl)benzoyl)-5-methloctahydro-1H-pyrrolo[2,3-c]pyridin-1-yl)isonicotinonitrile]
IC50 (human orexin-2 receptor): 18.4 nM | IC50 (hOX1R): 2370 nM
